“And” between values parts separate entries of the source, which are not always exact repeats. Equal entries are not always repeated.
How the values were obtained:
Assay in all cases: apoptosis induction in cancer cell lines, late-stage follow-up, mechanism study for MCL1-BIM inhibitor project, imaging, DAPI staining, cell line panel, probe (AID 624396)
DHL-10 = settings: DAPI nuclear morphology, single IC50 determination, other campaign
1780 MCl1 = settings: DAPI nuclear morphology
1863 BCL-XL = settings: DAPI nuclear morphology
NCI-H929 = settings: DAPI nuclear morphology
DHL-6 = settings: DAPI nuclear morphology

In the case of `CCN1CCN(C(c2ccc(C(F)(F)F)cc2)c2ccc3cccnc3c2O)CC1` (stereo not given), the IC50 (DHL-10) is reported as > 25000 nM, the IC50 (1780 MCl1) is reported as 700 nM and 300 nM and the IC50 (1863 BCL-XL) is reported as 1200 nM and 1100 nM. For the same compound, the IC50 (NCI-H929) was 3600 nM and 1600 nM and the IC50 (DHL-6) was 2200 nM and 3300 nM.

From PubChem BioAssay AID624396 (The Scripps Research Institute Molecular Screening Center, 2012)
